Data published in the OligoGym collection.
“And” between values parts separate entries of the source, which are not always exact repeats. Equal values may be shown once. After the bases stand the sugars from the 5' end (letter, count) and the backbone: PS all phosphorothioate, else s phosphorothioate and o phosphodiester by linkage. Methylation of C is not given here. k = constrained ethyl (cEt); d = 2'-deoxy (DNA)

Molecular target: MALAT1
Conditions: ASO, A431, 0.005 µM

| Sequence | target mRNA inhibition |
| --- | --- |
| ACTGAAGAGCATTGGA (sugars k3 d10 k3, PS) | 34% |
| ACTGAATCCACTTCTG (sugars k3 d10 k3, PS) | 35% |
| ACTGATCTGACTTTGT (sugars k3 d10 k3, PS) | 32% |
| ACTGCAAGGTCTCATA (sugars k3 d10 k3, PS) | -1% |
| ACTGCATTTACTTGCC (sugars k3 d10 k3, PS) | 8% |
| ACTGCTTACAGATTTG (sugars k3 d10 k3, PS) | 61% and 64% |
| ACTGGGAATACTCTTC (sugars k3 d10 k3, PS) | 28% |
| ACTGGTACACCCAGTG (sugars k3 d10 k3, PS) | -8% |
| ACTTATCCCTAACATG (sugars k3 d10 k3, PS) | 13% |
| ACTTGAATGCAAACTA (sugars k3 d10 k3, PS) | 11% |
| AGAAATCGGAGCAGCA (sugars k3 d10 k3, PS) | 9% |
| AGAAGAATCCCCCCCA (sugars k3 d10 k3, PS) | -13% |
| AGAAGTCTCGGGCTGC (sugars k3 d10 k3, PS) | 8% |
| AGACAGACCTAAGGGA (sugars k3 d10 k3, PS) | 21% |
| AGACAGATTAGTAGTC (sugars k3 d10 k3, PS) | -8% |
| AGAGAAGAATCCCCCC (sugars k3 d10 k3, PS) | 28% |
| AGAGTGTTCGCAGACA (sugars k3 d10 k3, PS) | 57% |
| AGATACCTGTCTGAGG (sugars k3 d10 k3, PS) | 12% |
| AGATAGCAGCACAACT (sugars k3 d10 k3, PS) | -5% |
| AGATTCACTGAATCCA (sugars k3 d10 k3, PS) | 6% |
| AGATTTGAGCTGCAAA (sugars k3 d10 k3, PS) | 11% |

| Sequence | target mRNA inhibition |
| --- | --- |
| AGCACCTGGGTCAGCT (sugars k3 d10 k3, PS) | -5% |
| AGCACGGGCTGTCTGC (sugars k3 d10 k3, PS) | 7% |
| AGCAGCACGGGCTGTC (sugars k3 d10 k3, PS) | 10% |
| AGCCTATAAGGACAGC (sugars k3 d10 k3, PS) | 23% |
| AGCCTTGCAGGGACGG (sugars k3 d10 k3, PS) | -21% |
| AGCCTTTATCACTCAG (sugars k3 d10 k3, PS) | 35% |
| AGCGAGTTCAAGTGGC (sugars k3 d10 k3, PS) | 27% |
| AGCTACCATCAGAAGA (sugars k3 d10 k3, PS) | 34% |
| AGCTATTAAAATTACG (sugars k3 d10 k3, PS) | 22% |
| AGCTCTATACTTTGAA (sugars k3 d10 k3, PS) | 64% |
| AGCTGCAGGCTATTAC (sugars k3 d10 k3, PS) | 39% |
| AGCTGTCAATTAATGC (sugars k3 d10 k3, PS) | 10% |
| AGCTTCATCAAACACT (sugars k3 d10 k3, PS) | 3% |
| AGCTTGGCCAAGTCTG (sugars k3 d10 k3, PS) | 28% |
| AGCTTGTTCACCTGTT (sugars k3 d10 k3, PS) | 37% |
| AGCTTTACCTTCTAAC (sugars k3 d10 k3, PS) | 47% |
| AGGAACAAGTCCTACA (sugars k3 d10 k3, PS) | 36% |
| AGGATTCTAGACAGAC (sugars k3 d10 k3, PS) | 72% and 71% |
| AGGTATGAGCTTCAGA (sugars k3 d10 k3, PS) | 1% |
| AGGTTACCATAAGTAA (sugars k3 d10 k3, PS) | 10% |
| AGGTTCTAGTTTTACT (sugars k3 d10 k3, PS) | 16% |

| Sequence | target mRNA inhibition |
| --- | --- |
| AGTAGTTGTATTAATC (sugars k3 d10 k3, PS) | 64% and 41% |
| AGTCAAAGCAAAGACG (sugars k3 d10 k3, PS) | 35% |
| AGTCACTGGATAAGTA (sugars k3 d10 k3, PS) | 41% |
| AGTCCAATGCAAAAAC (sugars k3 d10 k3, PS) | 23% |
| AGTGTAAAACATTGCC (sugars k3 d10 k3, PS) | 7% |
| AGTTAATGTCAGCCCA (sugars k3 d10 k3, PS) | 34% |
| AGTTACATGTTCCCAC (sugars k3 d10 k3, PS) | 33% |
| AGTTATATTAGGTTCT (sugars k3 d10 k3, PS) | 22% |
| AGTTGGTAATTACTCT (sugars k3 d10 k3, PS) | 40% |
| AGTTTATCTGCAATCA (sugars k3 d10 k3, PS) | 46% and 59% |
| AGTTTGCTCACATGCC (sugars k3 d10 k3, PS) | 65% and 53% |
| ATAACTGATCTGACTT (sugars k3 d10 k3, PS) | -5% |
| ATAAGCACTTATCCCT (sugars k3 d10 k3, PS) | 50% |
| ATAAGGTCAATAGTGT (sugars k3 d10 k3, PS) | 38% |
| ATACATCAAGGATGTA (sugars k3 d10 k3, PS) | 19% |
| ATACTGAAAACTCCCC (sugars k3 d10 k3, PS) | 14% |
| ATACTTCTCCAATACT (sugars k3 d10 k3, PS) | -15% |
| ATATAAGGTCAATAGT (sugars k3 d10 k3, PS) | 16% |
| ATATCTTAGTAACCTA (sugars k3 d10 k3, PS) | 15% |
| ATATTTAACTTCCCCC (sugars k3 d10 k3, PS) | 30% |
| ATATTTTAAACGGGTC (sugars k3 d10 k3, PS) | 16% |

| Sequence | target mRNA inhibition |
| --- | --- |
| ATCACCTTCCGCCGCC (sugars k3 d10 k3, PS) | 15% |
| ATCACCTTCGGTTTAA (sugars k3 d10 k3, PS) | 40% |
| ATCCACTTCTGTGTAG (sugars k3 d10 k3, PS) | 38% |
| ATCCACTTGATCCCAA (sugars k3 d10 k3, PS) | 16% |
| ATCCCAACCGTAACAG (sugars k3 d10 k3, PS) | 13% |
| ATCCCTTTACACCTCA (sugars k3 d10 k3, PS) | 36% |
| ATCTGCGGCCCCCCAG (sugars k3 d10 k3, PS) | -8% |
| ATGAGTATAAGCCTGA (sugars k3 d10 k3, PS) | 55% |
| ATGCACTGGTACACCC (sugars k3 d10 k3, PS) | 24% |
| ATGCTACTCTTCTAAG (sugars k3 d10 k3, PS) | 40% |
| ATGCTAGTCCTCAGGA (sugars k3 d10 k3, PS) | -20% |
| ATGGAAAGCGAGTTCA (sugars k3 d10 k3, PS) | 14% |
| ATGGCTTTGTCTCCGA (sugars k3 d10 k3, PS) | 15% |
| ATTAAATTGATGGGCT (sugars k3 d10 k3, PS) | 20% |
| ATTAATGCTAGTCCTC (sugars k3 d10 k3, PS) | 36% |
| ATTACACCAGTCCTTT (sugars k3 d10 k3, PS) | 40% |
| ATTACGCAACTGAGCC (sugars k3 d10 k3, PS) | 16% |
| ATTCAAGCTGAACTAT (sugars k3 d10 k3, PS) | 10% |
